According to ChEMBL document CHEMBL1156254, “4-Pregnen-21-ol-3,20-dione-21-(4-bromobenzenesulfonate) (NSC 88915) and related novel steroid derivatives as tyrosyl-DNA phosphodiesterase (Tdp1) inhibitors” (J Med Chem, 2009):
Calls of active or inactive are those of the source. The calls are words filed in the database; no cut-off is given here.

Each molecule was assayed against DNA repair nuclease/redox regulator APEX1 (Homo sapiens) (UniProt P27695) (assay: Inhibition of human APE1 up to 100 uM).
Sequence of DNA repair nuclease/redox regulator APEX1 (Homo sapiens) (P27695 whole entry): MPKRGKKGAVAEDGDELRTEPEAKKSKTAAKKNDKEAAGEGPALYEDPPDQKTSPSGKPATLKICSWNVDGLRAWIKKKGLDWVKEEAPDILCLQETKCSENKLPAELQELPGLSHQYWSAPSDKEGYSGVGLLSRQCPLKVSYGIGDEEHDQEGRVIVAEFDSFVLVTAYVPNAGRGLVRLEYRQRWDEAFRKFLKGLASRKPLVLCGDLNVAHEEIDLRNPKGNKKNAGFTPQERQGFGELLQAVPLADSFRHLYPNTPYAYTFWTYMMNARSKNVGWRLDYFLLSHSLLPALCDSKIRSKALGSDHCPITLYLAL

inhibition	SMILES
inactive	C[C@]12CC[C@H]3[C@@H](CCC4=CC(=O)CC[C@@]43C)[C@@H]1CC[C@@H]2C(=O)COS(=O)(=O)c1ccc(Br)cc1

These molecules were tested against Tyrosyl-DNA phosphodiesterase 1 (Homo sapiens) (UniProt Q9NUW8) (assay: Ratio of IC50 of test compound to IC50 of NSC88915 for human Tdp1 assessed as blockade of enzyme-mediated hydrolysis of phosphodiester linkage between tyrosine and 3^-end of N14Y DNA substrate by SDS-PAGE electrophoresis).
Sequence of Tyrosyl-DNA phosphodiesterase 1 (Homo sapiens) (Q9NUW8 whole entry): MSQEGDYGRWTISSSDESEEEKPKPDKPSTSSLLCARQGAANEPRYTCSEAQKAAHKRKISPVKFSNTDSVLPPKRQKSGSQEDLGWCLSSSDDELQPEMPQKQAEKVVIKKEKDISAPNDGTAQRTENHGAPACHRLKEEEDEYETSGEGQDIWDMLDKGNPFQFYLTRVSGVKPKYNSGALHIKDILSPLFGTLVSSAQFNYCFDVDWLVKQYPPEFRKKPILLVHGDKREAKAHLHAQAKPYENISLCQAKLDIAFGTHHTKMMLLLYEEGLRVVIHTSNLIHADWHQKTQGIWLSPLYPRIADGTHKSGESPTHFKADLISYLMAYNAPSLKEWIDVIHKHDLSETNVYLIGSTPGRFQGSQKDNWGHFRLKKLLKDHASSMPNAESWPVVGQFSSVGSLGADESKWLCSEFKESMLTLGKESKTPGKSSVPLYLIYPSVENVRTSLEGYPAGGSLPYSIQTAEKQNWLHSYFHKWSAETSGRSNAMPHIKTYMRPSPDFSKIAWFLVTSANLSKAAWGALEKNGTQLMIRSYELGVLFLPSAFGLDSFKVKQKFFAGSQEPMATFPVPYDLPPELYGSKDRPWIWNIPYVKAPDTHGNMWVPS

Ratio IC50	SMILES
< 3	Cc1ccc(S(=O)(=O)OCC(=O)[C@H]2CC[C@H]3[C@@H]4CCC5=CC(=O)CC[C@]5(C)[C@H]4CC[C@]23C)cc1
< 3	C[C@]12CC[C@H]3[C@@H](CCC4=CC(=O)CC[C@@]43C)[C@@H]1CC[C@@H]2C(=O)COS(=O)(=O)c1ccc(F)cc1
< 3	C[C@]12CC[C@H]3[C@@H](CCC4=CC(=O)CC[C@@]43C)[C@@H]1CC[C@@H]2C(=O)COS(=O)(=O)c1ccc([N+](=O)[O-])cc1
< 3	C[C@]12CC[C@H]3[C@@H](CCC4=CC(=O)CC[C@@]43C)[C@@H]1CC[C@@H]2C(=O)COS(=O)(=O)c1ccccc1
< 3	C[C@]12CC[C@H]3[C@@H](CCC4=CC(=O)CC[C@@]43C)[C@@H]1CC[C@@H]2C(=O)COS(=O)(=O)c1ccc(Cl)cc1
